The results in this text go back to US20250360142A1, “NOVEL ATP-SENSITIVE POTASSIUM CHANNEL POTENTIATORS, THEIR PREPARATION AND USE” (RHYTHM PHARMACEUTICALS, INC., priority 2022, published 2025).

In one assay the test system is INS-1E cells. Description: Glucose stimulated insulin secretion assay (GSIS) in INS-1E cells. The class given is cell-based, rat. As to conditions: for inhibition at 10 µM: INS-1E cells. Here is the method: (§1) INS-1E, rat pancreatic tumor (insulinoma) cells were used in the GSIS assay. INS-1E cells were thawed and incubated in culture medium (CM) (RPMI 1640+Glucose q.s., HEPES 25 mM, Na-Pyruvat 1 mM, 2-Mercaptoethanol 50 μM, Fetal Calf Serum; heat inactivated (FCS) 10%, Penicillin/Streptomycin 100 U/ml) at 37° C.; 5% CO2 in a humidified atmosphere. 96 welled plates are coated with Matrigel by incubating the plates with 1 ml pre-diluted 1:10 with cold basal medium with 100 μl/well at 37° C. for 1 hour. Matrigel is then removed and replaced with 100 μl CM. Cells are then seeded into the wells as 70 000 cells/well. CM is refreshed with 200 μl fresh CM on the third day. CM is refreshed again with 200 μl fresh CM on the sixth day. GSIS assay is performed on the seventh day and cells in wells are washed with PKrebs®BSA and incubated with 100 μL/well for 2 h. Secretion plates are placed in an incubator at 37° C., 5% C02 and saturated humidity for 60 min. Meanwhile, lysis solution is prepared by adding 1 tablet of protease inhibitor/10 mL TETG solution and kept at 4° C. until the end of the experiment. The other incubation buffers are prepared without adding pharmacological compounds, aliquoted and then placed in a water bath at 37° C. The samples are prepared including negative (βKrebs®B0=0 mM Glucose) and positive controls (PKrebs®B20=20 mM Glucose) and each compound to be tested is diluted in DMSO as having a series of final concentration including 10.00, 4.00, 1.60, 0.64, 0.26, 0.10, 0.04, 0.02 μM.
(§2) After 2 hours of starvation, glucose stimulation and treatments are initiated. KRB Buffer from cells is removed by pipetting. The solutions are homogenized and the cells are treated with 90 µL/well. 10 μl from 10-fold compound dilution is added to the assay plate (final 100 μl/well) according to the following layout for each compound to be tested.
(§3) Incubation time is 40 minutes. Plates are placed in an incubator at 37° C., 5% CO2 and saturated humidity. After incubation, 80 μL of supernatants are collected without disrupting the cell layer and stored at 4° C. or on ice until centrifugation. Remaining medium are removed from each well and 100 μL/well of cold lysis solution is added and incubated for minimum 2 minutes at room temperature. Cell lysis is observed under microscope and waited for maximum for 5 more minutes until the lysis is complete. Cell lysates are collected and all samples including supernatants are centrifuged at 700×g, 5 min at 4° C. 30 μL of each samples are transferred into aliquots for ELISA. ELISA is performed with HTRF Assay Kit comprising an insulin high range kit supplied by Cisbio/Perkin Elmer. 5 μl of each Insulin standard and 5 μl of either supernatant or lysate are transferred on HTRF plate. 40 μl/well of Anti-insulin—XL665 and 20 μl/well of Anti-insulin—EU are added to each well and the plate is read on HTRF compatible reader (fluorescence 620 nm & 665 nm).

Another assay concerns EndoC-βH1 Cell Line. The assay is described as follows: GSIS assay in EndoC-βH1 cell line. The class given is cell-based. As for the experimental part:
as §1, §2, §3
GSIS experiments were also performed in other cell lines, e.g., EndoC-βH1, a canonical cell line for screening new therapeutic compounds.

Where only a bound is given, the exact number is not on record here.

As for `CC1(C)CC1NC1=NS(=O)(=O)c2cc(F)ccc2N1` (single isomer, unassigned) [Compound 7, (R*)-3-((2,2-dimethylcyclopropyl)amino)-7-fluoro-4H-benzo[e][1,2,4]thiadiazine 1,1-dioxide], in the assay on INS-1E cells (INS-1E cell line), the “% inhibition of Insulin (Average Inhibition (%))” value (“% inhibition of Insulin” below) is given as “B (B is equal to 25-50% inhibition)”.
For `O=S1(=O)N=C(NC2CC23CC3)Nc2ccc(F)cc21` (single isomer, unassigned) [Compound 9, (S*)-7-fluoro-3-(spiro[2.2]pentan-1-ylamino)-4H-benzo[e][1,2,4]thiadiazine 1,1-dioxide], the “% inhibition of Insulin” value with INS-1E cells (INS-1E cell line) is recorded as “B (B is equal to 25-50% inhibition)”.
In general, IC50 refers to the concentration that inhibits the measured activity by half. A lower IC50 goes with higher potency. `O=S1(=O)N=C(NC2CC23CCC3)Nc2cc(Cl)c(F)cc21` (single isomer, unassigned) [Compound 16, (S*)-6-chloro-7-fluoro-3-(spiro[2.3]hexan-1-ylamino)-4H-benzo[e][1,2,4]-thiadiazine 1,1-dioxide] came in with an IC50 with EndoC-βH1 Cell Line of 500 to 1000 nM.
On the same count and under the same terms, then `O=S1(=O)N=C(NC2CC23CCC3)Nc2cc(Cl)c(F)cc21` (single isomer, unassigned) [Compound 17, (R*)-6-chloro-7-fluoro-3-(spiro[2.3]hexan-1-ylamino)-4H-benzo[e][1,2,4]-thiadiazine 1,1-dioxide], with less than 500 nM; and `CC1(C)CC1NC1=NS(=O)(=O)c2cc(F)c(Cl)cc2N1` (single isomer, unassigned) [Compound 21, (S*)-6-chloro-3-((2,2-dimethylcyclopropyl)amino)-7-fluoro-4H benzo[e][1,2,4] thiadiazine 1,1-dioxide], with 500 to 1000 nM.
The compound `CC1(C)CC1NC1=NS(=O)(=O)c2cc(F)c(Cl)cc2N1` (single isomer, unassigned) [Compound 22, (R*)-6-chloro-3-((2,2-dimethylcyclopropyl)amino)-7-fluoro-4H-benzo[e][1,2,4] thiadiazine 1,1-dioxide] had a concentration for half-maximal inhibition (IC50) with EndoC-βH1 Cell Line of 1000 to 2000 nM.
The same measure, in the same setting: then `O=S1(=O)N=C(NC2CC23CC3)Nc2cc(Cl)c(F)cc21` (single isomer, unassigned) [Compound 29, (S*)-6-chloro-7-fluoro-3-(spiro[2.2]pentan-1-ylamino)-4H-benzo[e][1,2,4]-thiadiazine 1,1-dioxide], with no less than 2000 nM.
Take `O=S1(=O)N=C(NC2CC23CC3)Nc2cc(Cl)c(F)cc21` (single isomer, unassigned) [Compound 30, (R*)-6-chloro-7-fluoro-3-(spiro[2.2]pentan-1-ylamino)-4H-benzo[e][1,2,4]-thiadiazine 1,1-dioxide]: the half-maximal inhibitory concentration (IC50) in the assay with EndoC-βH1 Cell Line is less than 500 nM.
The compound `C[C@H]1C[C@@H]1NC1=NS(=O)(=O)c2cc(F)c(Cl)cc2N1` (stereo in doubt) [Compound 26, 6-chloro-7-fluoro-3-(((1S*, 2S*)-2-methylcyclopropyl)amino)-4H-benzo[e][1,2,4]-thiadiazine 1,1-dioxide] registered an IC50 in the assay on EndoC-βH1 Cell Line of 1000 to 2000 nM.
The compound `C[C@@H]1C[C@H]1NC1=NS(=O)(=O)c2cc(F)c(Cl)cc2N1` (stereo in doubt) [Compound 27, 6-chloro-7-fluoro-3-(((1R*, 2R*)-2 methylcyclopropyl)amino)-4H-benzo[e][1,2,4]-thiadiazine 1,1-dioxide] returned an IC50 with EndoC-βH1 Cell Line of no less than 2000 nM.
The compound `CC1(NC2=NS(=O)(=O)c3cc(F)ccc3N2)CCC1` [Compound 2, 7-fluoro-3-((1-methylcyclobutyl)amino)-4H-benzo[e][1,2,4]thiadiazine 1,1-dioxide] came in with an IC50 in the assay with EndoC-βH1 Cell Line of less than 500 nM.
In the assay on EndoC-βH1 Cell Line, `O=S1(=O)N=C(NC23CC(F)(C2)C3)Nc2ccc(F)cc21` [Compound 3, 7-fluoro-3-((3-fluorobicyclo[1.1.1]pentan-1-yl)amino)-4H-benzo[e][1,2,4]thiadiazine 1,1-dioxide] yielded a concentration for half-maximal inhibition (IC50) of no less than 2000 nM.
Same read-out and setting: then `O=S1(=O)N=C(NC23CCC(C2)C3)Nc2ccc(F)cc21` [Compound 4, 3-(bicyclo[2.1.1]hexan-1-ylamino)-7-fluoro-4H-benzo[e][1,2,4]thiadiazine 1,1-dioxide], with 500 to 1000 nM; and `CC1(C)CC1NC1=NS(=O)(=O)c2cc(F)ccc2N1` (centres unmarked) [Compound 5, 3-((2,2-dimethylcyclopropyl)amino)-7-fluoro-4H-benzo[e][1,2,4]thiadiazine 1,1-dioxide], with 1000 to 2000 nM.
In the case of `O=S1(=O)N=C(NC2CC23CC3)Nc2ccc(F)cc21` (centres unmarked) [Compound 8, 7-fluoro-(spiro[2.2]pentan-1-ylamino)-4H-benzo[e][1,2,4]thiadiazine 1,1-dioxide], the IC50 in the assay on EndoC-βH1 Cell Line was in the range of 1000 to 2000 nM.
Regarding `O=S1(=O)N=C(NC2CC23CCC3)Nc2ccc(F)cc21` (centres unmarked) [Compound 11, 7-fluoro-3(spiro[2.3]hexan-1-ylamino)-4H-benzo[e][1,2,4]thiadiazine 1,1-dioxide], the “% inhibition of Insulin” value in the assay on INS-1E cells (INS-1E cell line) was “B (B is equal to 25-50% inhibition)”. The IC50 in the assay on INS-1E cells (Rattus norvegicus, INS-1E cell line) fell in the range of 500 to 1000 nM.
Regarding `CCC1(NC2=NS(=O)(=O)c3cc(F)ccc3N2)CC1` [Compound 12, 3-((1-ethylcyclopropyl)amino)-7-fluoro-4H-benzo[e][1,2,4]thiadiazine 1,1-dioxide], in the assay on INS-1E cells (INS-1E cell line), the “% inhibition of Insulin” value is given as “C (C is equal to 10-25% inhibition)”.
`CC12CC(NC3=NS(=O)(=O)c4cc(F)c(Cl)cc4N3)(C1)C2` [Compound 18, 6-chloro-7-fluoro-3-((3-methylbicyclo[1.1.1]pentan-1-yl)amino)-4H-benzo[e][1,2,4]thiadiazine 1,1-dioxide]: the “% inhibition of Insulin” value in the assay on INS-1E cells (INS-1E cell line) is “C (C is equal to 10-25% inhibition)”.
What is called inhibition is the share of the control response that was lost under treatment. Higher therefore signals a strong effect. `O=S1(=O)N=C(NC(CF)CF)Nc2ccc(F)cc21` [Compound 43] came in with an inhibition at 10 µM in the assay with INS-1E cells (Rattus norvegicus) of 10 to 25%.
Still for that read-out and setting: then `CC1(NC2=NS(=O)(=O)c3cc(F)ccc3N2)CC1` [Compound 46], with no less than 50%.
The same measure, in the same setting: then `O=S1(=O)N=C(NC2(CF)CC2)Nc2ccc(F)cc21` [Compound 47], with 10 to 25%; and `O=S1(=O)N=C(NC(CF)CF)Nc2ccc(Cl)cc21` [Compound 49], with no less than 50%.
For the compound `CC1(NC2=NS(=O)(=O)c3cc(Cl)ccc3N2)CC1` [Compound 51], the inhibition at 10 µM with INS-1E cells (Rattus norvegicus) lay within 10 to 25%.
The same measure, in the same setting: then `O=S1(=O)N=C(NC2(CF)CC2)Nc2ccc(Cl)cc21` [Compound 52], with 10 to 25%.
On the same count and under the same terms, then `CC1(NC2=NS(=O)(=O)c3cc(F)c(Cl)cc3N2)CC1` [Compound 58], with no less than 50%.
The same measure, in the same setting: then `O=S1(=O)N=C(NC2(CF)CC2)Nc2cc(Cl)c(F)cc21` [Compound 60], with no less than 50%.
Consider `O=S1(=O)N=C(NC23CC(C2)C3)Nc2ccc(Cl)cc21` [Compound 62], for which the inhibition at 10 µM with INS-1E cells (Rattus norvegicus) is 25 to 50%.
As for `CC(C)C1(NC2=NS(=O)(=O)c3cc(F)ccc3N2)CC1` [Compound 63], the inhibition at 10 µM in the assay on INS-1E cells (Rattus norvegicus) is no less than 50%.
With `CC(C)C1(NC2=NS(=O)(=O)c3cc(F)c(Cl)cc3N2)CC1` [Compound 64], the inhibition at 10 µM with INS-1E cells (Rattus norvegicus) lay within 25 to 50%.
Take `COCC1(NC2=NS(=O)(=O)c3cc(F)ccc3N2)CCC1` [Compound 65]: the inhibition at 10 µM with INS-1E cells (Rattus norvegicus) fell in the range of 25 to 50%.
`COCC1(NC2=NS(=O)(=O)c3cc(F)c(Cl)cc3N2)CCC1` [Compound 69]: the inhibition at 10 µM with INS-1E cells (Rattus norvegicus) was no less than 50%.
Still for that read-out and setting: then `O=S1(=O)N=C(NC2CCOC2)Nc2ccc(F)cc21` (centres unmarked) [Compound 71], with 10 to 25%; and `O=S1(=O)N=C(NC2CCOC2)Nc2ccc(Cl)cc21` (centres unmarked) [Compound 72], with 25 to 50%.
Same read-out and setting: then `O=S1(=O)N=C(NC2CCOC2)Nc2cc(Cl)c(F)cc21` (centres unmarked) [Compound 73], with no less than 50%.
